Legend:
[1] = DPPH radical scavenging activity (Blois method); format: biochemical; conditions: reacted 10 min, absorbance at 517 nm
Experimental: (§1) The antioxidative activity of the novel compound obtained through the extraction and purification process is evaluated by measuring its radical scavenging activity against 1,1-diphenyl-2-picrylhydrazyl (DPPH), which has free radicals attached thereto, according to the Blois method. A thermal stability of the compound of interest can be evaluated by measuring its antioxidative activity at plural temperature points.
(§2) Dicaval A and Dicaval B obtained in Example 3 were measured for antioxidative activity according to the Blois method. For this, an examination was made of the radical scavenging activity of the two compounds against 1,1-diphenyl-2-picrylhydrazyl (DPPH) to which free radicals were attached. First, 20 mg of DPPH was dissolved in 150 ml of ethanol to prepare a DPPH solution. To 600 μl of the DPPH solution was added with 250 μl of dimethylsulfoxide (DMSO), diluted with an appropriate amount of ethanol and shaken for 10 seconds, after which this control was adjusted, in absorbance at 517 nm, from 0.94 to 0.97. To 1 ml of the DPPH solution which was adjusted from 0.94 to 0.97 likewise, each of the samples (μg to mg) was added and then, reacted for 10 min, followed by measuring the absorbance of the solution. The antioxidative activity of each of the samples was determined by the DPPH radical scavenging activity which was represented by a reduced absorbance compared with that of the control.
The antioxidative activity was compared between the conventional antioxidants and the compounds of the invention and the results are given in Table 1, below.

[2] = Thermal stability: antioxidative activity after heating for 1 hour; format: physicochemical
Experimental: as §1, §2
50 μg of each of Dicaval A and Dicaval B obtained in Example 3 was heated at 40° C., 60° C., 80° C., and 100° C. for 1 hour to measure antioxidative activity.

[3] = 50 μg heated at 40° C. for 1 hour
[4] = 50 μg heated at 60° C. for 1 hour
[5] = 50 μg heated at 80° C. for 1 hour
[6] = 50 μg heated at 100° C. for 1 hour

SMILES | antioxidative activity (DPPH radical scavenging activity) ([1]; sample amount 10 μg) [%] | antioxidative activity (DPPH radical scavenging activity) ([1]; sample amount 20 μg) [%] | antioxidative activity (DPPH radical scavenging activity) ([1]; sample amount 100 μg) [%] | Antioxidativity (Absorb. change) [2, 3] | Thermal stability (Notes) [2, 3] | Antioxidativity (Absorb. change) [2, 4] | Thermal stability (Notes) [2, 4] | Antioxidativity (Absorb. change) [2, 5] | Thermal stability (Notes) [2, 5] | Antioxidativity (Absorb. change) [2, 6] | Thermal stability (Notes) [2, 6]
Oc1cc(O)c(Oc2c(O)cc(Oc3c(O)cc4c(oc5c(O)c(Oc6cc(O)c(Oc7c(O)cc(O)cc7O)c(O)c6)c(O)cc54)c3O)cc2O)c(O)c1 [Dicaval B] | 100 | 100 | 100 | 0.88 | Stable | 0.88 | Stable | 0.87 | Stable | 0.89 | Stable
O=C1O[C@H]([C@@H](O)CO)C(O)=C1O [Ascorbic acid, reference compound] | 100 | 100 | 100 | – | – | – | – | – | – | – | –
Oc1cc(O)c(Oc2c(O)cc(Oc3cc4oc5c(O)c(Oc6cc(O)c(Oc7c(O)cc(O)cc7O)c(O)c6)c(O)cc5c4cc3O)cc2O)c(O)c1 [Dicaval A] | 100 | 100 | 100 | 0.87 | Stable | 0.89 | Stable | 0.88 | Stable | 0.90 | Stable

Source: patent US6774145B1, “Material separated from Ecklonia cava, method for extracting and purifying the same, and use thereof as antioxidants” (Ventree Co., Ltd, priority 2000, dated 2004)
